# In patent US4980377A, “1-(aminophenyl)-2-aminopropanone derivatives” (Laboratoire L. Lafon, priority 1984, dated 1990):
# “Also recorded” adds a separate entry of the source. Where a name gives a salt, the structure may show the parent alone.
# Key:
# [1] = pH of solutions in distilled water; format: physicochemical
# Method: The neuropsychopharmacological study was undertaken according to the procedures described above for CRL 41 153, CRL 41 213 being adminstered intraperitoneally, in solution in distilled water, in a volume of 20 ml/kg to male mice and a volume of 5 ml/kg to male rats, and the pH of the injected solution varying with the concentration of CRL 41 213 according to the data given in Table II below.
# mice [2] = experiment: Interaction with apomorphine in mice; format: in vivo, mouse; details: i.p.
# Method: Groups of 6 mice receive CRL 41 153 0.5 hour before the subcutaneous injection of 1 or 16 mg/kg of apomorphine.
# mice [3] = experiment: Spontaneous motility; format: in vivo, mouse; details: i.p.
# Method: 0.5 hour after they have received CRL 41 153, the mice (6 per dose, 12 control animals) are placed in an actimeter, where their motility is recorded for 30 minutes.
# mice [4] = experiment: Motility reduced by hypoxic aggression; format: in vivo, mouse; details: i.p.
# Method: Half an hour after they have received CRL 41 153, the mice (10 per dose, 20 control animals) are subjected to acute hypobaric anoxia [pressure reduction of 600 mm Hg (i.e. about 8×10^4 Pa) in 90 seconds; release of vacuum in 45 seconds] and are then placed in an actimeter, where their motility is recorded for 10 minutes.
# mice [5] = experiment: Interaction with barbital; format: in vivo, mouse; details: i.p., barbital 220 mg/kg
# Method: Half an hour after the administration of CRL 41 153, groups of 10 mice receive an intraperitoneal injection of barbital (220 mg/kg).
# mice [6] = experiment: Overall behavior and reactivities in mice; format: in vivo, mouse; details: dose not stated
# Method: (§1) In the neuropsychopharmacological study which follows, a solution of CRL 41 153 in distilled water (pH 1.5) was administered intraperitoneally in a volume of 20 ml/kg to male mice and 5 ml/kg to male rats.
# (§2) Groups of three animals are observed before and then 0.25 hour, 0.50 hour, 1 hour, 2 hours, 3 hours and 24 hours after the administration of CRL 41 153.
# CNS = experiment: Neuropsychopharmacological profile as a whole; format: in vivo, mice and rats
# Method: as §1
# [7] = tested on: gravid White New Zealand female rabbits; experiment: Teratogenicity in gravid White New Zealand rabbits; format: in vivo, rabbit; details: day 5 to day 18 of gestation; for Affected foetuses, %: normal limit 1.5%
# Method: The protocol used comprised administering to gravid White New Zealand female rabbits (weighing each about 2900-3000 grams before gestation) a daily dose of 0 (batch of control animals), 5,10 or 50 mg/kg of each product to be tested by gastrogavage from day 5 to day 18 of gestation, then carrying out a cesarean operation on day 29 of gestation in order to enumerate:
# (i) the total number of foestuses, and
# (ii) the total number of foestuses presenting at least one malformation.
# To appreciate the results of such a protocol it must be noted that natural malformations may occur. Statistically, the percentage of foetuses presenting at least one malformation in any control batch of gravid White New Zealand female rabbits is lower than or equal to 1.5% with respect to the total number of foetuses.
# To be precise in this protocol a malformation comprises at least one of the following cases: articular limb blocade, anorous foetus, deviated tail, shorter tail, skull deformation, exemcephalia.
# mice [8] = experiment: Interaction with reserpine; format: in vivo, mouse; details: i.p.
# Method: Four hours after the intraperitoneal injection of 2.5 mg/kg of reserpine, groups of 6 mice receive CRL 41 153.
# mice [9] = experiment: Four plate test, traction and electric shock; format: in vivo, mouse; details: i.p.
# Method: The test is performed on groups of 10 mice 30 minutes after the administration of CRL 41 153.
# mice [10] = experiment: Motility reduced by habituation to the enclosure; format: in vivo, mouse; details: i.p.
# Method: After they have stayed In the actimeters for 18 hours, (he mice (6 per dose, 12 control animals) receive CRL 41 153. They are immediately returned to their respective enclosures and, half an hour later, their motility is recorded for 30 minutes.
# mice [11] = experiment: Interaction with oxotremorine; format: in vivo, mouse; details: i.p.
# Method: CRL 41 153 is administered to groups of 6 mice 0.5 hour before the intraperitoneal injection of 0.5 mg/kg of oxotremorine.
# rats [12] = experiment: Interaction with amphetamine; format: in vivo, rat; details: i.p.
# Method: Amphetamine (2 mg/kg) is injected intraperitoneally into groups of 6 rats 30 minutes after the administration of CRL 41 153. […] 4 mg/kg and 16 mg/kg, CRL 41 153 potentiates the intensity and duration of the stereotypies induced by amphetamine.
# rats [13] = experiment: Overall behavior and reactivities in rats; format: in vivo, rat; details: dose not stated
# Method: as §1, §2
# mice [14] = experiment: Behavioral despair; format: in vivo, mouse; details: forcibly immersed mice, i.p.
# Description: Half an hour after they have received CRL 41 153, groups of 6 mice are placed in a beaker filled with water to a height of 6 cm. The total period of immobility between the 2nd and 6th minutes following immersion is noted.
# rats [15] = experiment: Interaction with apomorphine in rats; format: in vivo, rat; details: i.p.
# Method: CRL 41 153 is administered to groups of 6 rats 0.5 hour before the subcutaneous injection of 0.5 mg/kg of apomorphine.
# immunity = experiment: Immunological study (overall); details: in vivo
# [16] = Particular toxicity in grouped mice; details: mouse, in vivo, ip
# Method: The number of dead animals is noted after 1 hour, 2 hours, 3 hours, 4 hours and 24 hours.
Structure (SMILES),pH ([1]; 6 g/liter in distilled water),pH ([1]; 50 g/liter in distilled water),Effect on hypothermia induced by apomorphine (mice [2]),Spontaneous motor activity (mice [3]),Motor recovery of mice after hypobaric hypoxia (mice [4]),Duration of the sleep induced by barbital (mice [5]),Overall behavior: observed effects (summary) (mice [6]),Stereotype movements (summary) (mice [6]),Antidepressant effects (overall) (CNS; conclusion of the tests),Stimulant effects (overall) (CNS; conclusion of the tests),α-adrenergic stimulant effects (overall) (CNS; conclusion of the tests),Effect on hypothermia induced by reserpine (mice [8]),Effect on ptosis induced by reserpine (mice [8]),Effect on convulsant effects of electric shock (mice [9]),Motor activity of mice accustomed to their enclosure (mice [10]),Effect on hypothermic action of oxotremorine (mice [11]),Effect on stereotypies induced by amphetamine (rats [12]),Overall behavior: observed effects (summary) (rats [13]),Stereotype movements (summary) (rats [13]),Period of immobility due to despair (mice [14]),other results
"CNC(C)C(=O)c1ccc(N)cc1 (stereo not shown) [CRL 41 218, 1-4-aminophenyl)-2-methylaminopropanone dihydrochloride]",5.0,4.0,antagonism of the hypothermia,increase in the motor activity,improvement in the motor recovery,distinct antagonism of the sleep induced by barbital,excitation in mice and rats,presence of stereotype movements,antidepressant effects,stimulant effects,α-adrenergic stimulant effects,antagonism of the hypothermia,antagonism of the ptosis induced by reserpine,"antagonism, at strong doses, of the convulsant effects of electric shock",resumption in the motor activity of mice accustomed to their enclosure,antagonism of the hypothermia,potentiation of the stereotypies,excitation in mice and rats,presence of stereotype movements,a reduction in the period of immobility,"pH ([1]; 13 g/liter in distilled water): 4.5; pH ([1]; ≤3 g/liter in distilled water): 5.5; Anticonvulsant effects (overall) (CNS; conclusion of the tests): anticonvulsant effects; Peripheral α-adrenergic signs (mydriasis, salivation, lacrimation, exophthalmos) (CNS; species and dose not stated, dihydrochloride): mydriasis; also recorded: salivation; Affected foetuses, number ([7]; 50 mg/kg daily): 1; Total foetuses (live) ([7]; 50 mg/kg daily): 79; Affected foetuses, % ([7]; 50 mg/kg daily): 1.26%; Effect on stereotypies induced by apomorphine (rats [15]): potentiation of the stereotypies"
CC(C(=O)c1ccc(N)cc1)N1CCCCC1 (stereo not shown) [CRL 41 241],2.0,1.0,antagonism of the hypothermia,an increase in the spontaneous motor activity of mice,improvement in the motor recovery,a reduction in the duration of the sleep induced by barbital,excitation with hyperactivity in mice and rats; also recorded: moderate mydriasis in mice and rats,the presence of stereotype movements in mice and rats,antidepressant-type effect,large stimulant component,an α-adrenergic stimulation component,antagonism of the hypothermia,a decrease in the ptosis induced by reserpine,total antagonism of the convulsant effect of electric shock,resumption in the motor activity of mice accustomed to their enclosure,antagonism of the hypothermia,potentiation of the stereotypies,excitation with hyperactivity in mice and rats; also recorded: moderate mydriasis in mice and rats,the presence of stereotype movements in mice and rats,a reduction in the Period of immobility,"pH ([1]; 0.3 g/liter in distilled water): 5.0; pH ([1]; 0.5 g/liter in distilled water): 4.5; pH ([1]; 1 g/liter in distilled water): 3.5; pH ([1]; 2 g/liter in distilled water): 3.0; pH ([1]; 3 g/liter in distilled water): 2.5; pH ([1]; 26 g/liter in distilled water): 1.5; pH ([1]; ≤0.05 g/liter in distilled water): 5.5; Affected foetuses, number ([7]; 10 mg/kg daily): 0; Total foetuses (live) ([7]; 10 mg/kg daily): 88; Affected foetuses, % ([7]; 10 mg/kg daily): 0%; Number of punished passes in the four plate test (mice [9]): a moderate increase in the number of punished passes in the 4 plate test on mice (at high doses); Effect on trembling induced by oxotremorine (mice [11]): a very distinct reduction in the intensity of the trembling due to oxotremorine; Effect on stereotypies induced by apomorphine (rats [15]): potentiation of the stereotypies"
CC(C(=O)c1ccc(N)cc1)N1CCSCC1 (stereo not shown) [CRL 41 248],,1.5,,,,,,,,,,,,,,,,,,,"pH ([1]; 0.05 g/liter in distilled water): 5.0; pH ([1]; 0.1 g/liter in distilled water): 4.5; pH ([1]; 0.2 g/liter in distilled water): 4.0; pH ([1]; 0.4 g/liter in distilled water): 3.5; pH ([1]; 1.2-0.8 g/liter in distilled water): 3.0; pH ([1]; 3.2 g/liter in distilled water): 2.5; pH ([1]; 6.4 g/liter in distilled water): 2.0; pH ([1]; ≤0.025 g/liter in distilled water): 5.5; Affected foetuses, number ([7]; 10 mg/kg daily): 1; Total foetuses (live) ([7]; 10 mg/kg daily): 93; Affected foetuses, % ([7]; 10 mg/kg daily): 1.07%; Immunological effect (overall) (immunity): immunostimulant or immunomodulating effects"
"COC(=O)C(c1ccccc1)C1CCCCN1 (stereo not shown) [methylphenidate, reference compound]",,,,,,,,,,,,,,,,,,,,,selectivity ratio [16]: ~6
"CN1Cc2c(N)cccc2C(c2ccccc2)C1 (stereo not shown) [nomifensin, reference compound]",,,,,,,,,,,,,,,,,,,,,selectivity ratio [16]: ~4
